Blank lines part the entries; values can stand above or below the compound they belong to.
Assays:
A2780 ovarian cells [1] = test: A2780 ovarian cell proliferation assay in lipid reduced medium, without palmitate (MTT); format: cell-based; details: Homo sapiens, A2780, 96 h; read-out: pIC50 A2780 Ovarian Cell, Without Palmitate (converted)
A2780 ovarian cells [2] = test: A2780 ovarian cell proliferation assay in lipid reduced medium, with palmitate (MTT); format: cell-based; details: Homo sapiens, A2780, 96 h; read-out: pIC50 A2780 Ovarian Cell, With Palmitate (converted)
Procedure, shortened: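 In this palmitate-supplemented format, compound dilutions (30 μM down to 0.01 μM) are added to cells in lipid-reduced serum with 25 μM palmitate, 0.2% fatty-acid-free BSA and 0.25% ethanol. After four days (96 h) MTT absorbance at 544 nm is recorded and fitted by minimum sum of squares.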

[3] = molecular target: T1, hFASN enzyme (full length) (Homo sapiens, UniProt P49327); test: Fatty Acid Synthase (FASN) inhibition scintillation proximity assay; format: biochemical; details: for inhibition at 10 µM: read-out: Human FASN % inhibition @ 10 μM, 10 μM test compound; for IC50: read-out: Human FASN pIC50 (converted)
T1 construct: 10 μL hFASN enzyme (full length, 300 ng, purified in house); made in house
Procedure, shortened: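 Scintillation proximity format: in-house full-length enzyme, 300 ng per well, pH 7.5 phosphate/DTT buffer, ³H-acetyl-CoA and malonyl-CoA. Emission counted on LEADseeker at 610 nm at least 24 h after stopping.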

[4] = test system: LNCaP-Vancouver prostate cells; test: In vitro LNCaP Vancouver prostate cell proliferation assay in lipid reduced medium; format: cell-based; details: read-out: pIC50 LNCaP_Vancouver prostate cell (converted)
[5] = test system: PC-3M-Luc-C6 prostate cells; test: In vitro PC-3M-Luc-C6 prostate cell proliferation assay in lipid reduced medium; format: cell-based; details: 96 h, read-out: pIC50 PC-3M-Luc-C6 prostate cell (converted)
[6] = molecular target: Fatty Acid Synthase Keto-reductase Domain (FASN KR) (Homo sapiens, UniProt P49327); test: Fatty Acid Synthase keto-reductase domain (FASN KR) inhibition, NADPH oxidation at 340 nm
Fatty Acid Synthase Keto-reductase Domain (FASN KR), sequence (P49327 whole entry, the tested form may be a part): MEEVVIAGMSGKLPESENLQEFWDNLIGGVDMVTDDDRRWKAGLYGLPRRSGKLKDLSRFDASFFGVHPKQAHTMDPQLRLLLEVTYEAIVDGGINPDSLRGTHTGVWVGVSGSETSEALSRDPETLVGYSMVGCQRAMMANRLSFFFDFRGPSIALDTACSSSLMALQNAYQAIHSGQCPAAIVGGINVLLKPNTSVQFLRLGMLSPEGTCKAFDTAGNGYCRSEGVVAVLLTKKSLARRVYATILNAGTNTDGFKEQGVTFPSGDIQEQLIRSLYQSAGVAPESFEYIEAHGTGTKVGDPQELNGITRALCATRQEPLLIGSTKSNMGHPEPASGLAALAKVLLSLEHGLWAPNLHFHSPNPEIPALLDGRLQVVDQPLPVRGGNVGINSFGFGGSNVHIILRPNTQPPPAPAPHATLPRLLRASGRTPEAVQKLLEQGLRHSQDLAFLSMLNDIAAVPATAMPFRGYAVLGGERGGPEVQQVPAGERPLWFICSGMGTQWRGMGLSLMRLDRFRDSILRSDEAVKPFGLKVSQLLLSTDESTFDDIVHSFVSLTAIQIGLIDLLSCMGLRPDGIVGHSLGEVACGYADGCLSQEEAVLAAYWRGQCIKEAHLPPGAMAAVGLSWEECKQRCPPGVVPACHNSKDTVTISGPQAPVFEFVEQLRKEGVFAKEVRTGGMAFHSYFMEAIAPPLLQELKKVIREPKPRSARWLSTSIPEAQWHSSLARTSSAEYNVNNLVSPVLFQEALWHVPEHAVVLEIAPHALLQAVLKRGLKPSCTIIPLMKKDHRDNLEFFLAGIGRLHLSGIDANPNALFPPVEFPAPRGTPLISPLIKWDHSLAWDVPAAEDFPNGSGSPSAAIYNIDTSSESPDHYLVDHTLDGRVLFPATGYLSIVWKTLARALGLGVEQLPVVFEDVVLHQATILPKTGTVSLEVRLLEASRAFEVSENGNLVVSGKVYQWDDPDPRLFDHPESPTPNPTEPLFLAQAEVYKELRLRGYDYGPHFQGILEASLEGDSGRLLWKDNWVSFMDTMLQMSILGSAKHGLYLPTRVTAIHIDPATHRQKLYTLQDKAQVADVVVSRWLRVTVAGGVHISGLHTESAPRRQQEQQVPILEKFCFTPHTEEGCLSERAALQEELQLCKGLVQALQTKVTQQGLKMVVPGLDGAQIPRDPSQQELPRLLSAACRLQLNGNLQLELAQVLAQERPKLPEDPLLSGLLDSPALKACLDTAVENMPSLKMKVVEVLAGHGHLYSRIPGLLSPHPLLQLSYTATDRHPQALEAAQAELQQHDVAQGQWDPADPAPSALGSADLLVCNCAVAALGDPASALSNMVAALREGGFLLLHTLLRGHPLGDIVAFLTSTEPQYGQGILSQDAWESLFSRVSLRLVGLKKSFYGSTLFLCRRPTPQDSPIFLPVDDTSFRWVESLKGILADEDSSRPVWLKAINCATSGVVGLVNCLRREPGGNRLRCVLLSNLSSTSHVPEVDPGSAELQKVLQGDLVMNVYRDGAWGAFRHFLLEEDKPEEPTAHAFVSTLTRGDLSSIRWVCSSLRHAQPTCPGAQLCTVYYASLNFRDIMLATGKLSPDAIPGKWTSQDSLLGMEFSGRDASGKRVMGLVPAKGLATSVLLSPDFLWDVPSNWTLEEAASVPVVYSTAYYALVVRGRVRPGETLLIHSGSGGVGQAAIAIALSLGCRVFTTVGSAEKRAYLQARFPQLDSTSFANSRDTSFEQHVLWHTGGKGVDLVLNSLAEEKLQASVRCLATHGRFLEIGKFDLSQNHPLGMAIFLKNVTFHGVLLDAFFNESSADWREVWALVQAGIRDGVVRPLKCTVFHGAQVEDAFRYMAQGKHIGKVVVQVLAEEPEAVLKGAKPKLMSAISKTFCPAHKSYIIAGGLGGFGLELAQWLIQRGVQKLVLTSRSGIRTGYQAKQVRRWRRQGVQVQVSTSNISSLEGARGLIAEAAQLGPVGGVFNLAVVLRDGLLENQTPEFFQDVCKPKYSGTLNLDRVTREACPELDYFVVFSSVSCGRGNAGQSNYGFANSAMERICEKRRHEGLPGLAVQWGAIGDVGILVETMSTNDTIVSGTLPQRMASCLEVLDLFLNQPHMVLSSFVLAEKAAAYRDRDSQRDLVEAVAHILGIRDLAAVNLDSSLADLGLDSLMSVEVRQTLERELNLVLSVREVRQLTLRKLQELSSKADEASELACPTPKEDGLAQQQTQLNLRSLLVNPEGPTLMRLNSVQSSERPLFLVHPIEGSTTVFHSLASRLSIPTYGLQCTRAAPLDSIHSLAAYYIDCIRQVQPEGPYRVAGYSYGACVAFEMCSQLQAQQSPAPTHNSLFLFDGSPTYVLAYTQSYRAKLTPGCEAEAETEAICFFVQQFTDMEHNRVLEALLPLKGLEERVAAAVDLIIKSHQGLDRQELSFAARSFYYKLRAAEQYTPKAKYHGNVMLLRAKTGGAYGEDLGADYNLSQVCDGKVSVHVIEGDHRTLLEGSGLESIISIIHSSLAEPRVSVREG
Description: After 20 minutes incubation at room temperature the plate was measured again (T2).
The decrease in absorbance was calculated as (Absorbance before incubation T1)−(Absorbance following incubation T2).
A plot of Controlmin versus test compound concentration was fitted to a 4-parameter logistic curve using a non-linear least squares regression method.

T1 sequence (P49327 whole entry): as the sequence (P49327 whole entry, the tested form may be a part) above

SMILES: Cc1ccc2ccc(-c3ccc(C4=NC5(CC5)C(=O)N4CC4CN(C(=O)C5(C)CC5)C4)c(C)c3)cc2n1 [compound 576, 6-({1-[(1-Methylcyclopropyl)carbonyl]azetidin-3-yl}methyl)-5-[2-methyl-4-(2-methylquinolin-7-yl)phenyl]-4,6-diazaspiro[2.4]hept-4-en-7-one]
IC50 (A2780 ovarian cells [1]): 288 nM | IC50 (A2780 ovarian cells [2]): > 10000 nM | inhibition at 10 µM [3]: 99% | IC50 [3]: 380 nM | IC50 [4]: 2140 nM | IC50 [5]: 676 nM | IC50 [6]: 676 nM

SMILES: Cn1nc(CO)c2cc(-c3ccc(C4=NC5(CC5)C(=O)N4CC4CN(C(=O)C5CC5)C4)c(F)c3)ccc21 [compound 609, 6-{[1-(Cyclopropylcarbonyl)azetidin-3-yl]methyl}-5-{2-fluoro-4-[3-(hydroxymethyl)-1-methyl-1H-indazol-5-yl]phenyl}-4,6-diazaspiro[2.4]hept-4-en-7-one]
IC50 (A2780 ovarian cells [1]): ~263 nM | IC50 (A2780 ovarian cells [2]): > 10000 nM | inhibition at 10 µM [3]: 99% | IC50 [3]: 186 nM | IC50 [4]: 4790 nM | IC50 [5]: 661 nM | IC50 [6]: 676 nM

SMILES: N#CCc1c[nH]c2ccc(-c3ccc(C4=NC5(CC5)C(=O)N4C[C@@H]4CCN(C(=O)C5CC5)C4)cc3)cc12 [compound 212, (R)-2-(5-(4-(6-((1-(cyclopropanecarbonyl)pyrrolidin-3-yl)methyl)-7-oxo-4,6-diazaspiro[2.4]hept-4-en-5-yl)phenyl)-1H-indole-3-yl)acetonitrile]
IC50 (A2780 ovarian cells [1]): 7.24 nM | IC50 (A2780 ovarian cells [2]): > 10000 nM | inhibition at 10 µM [3]: 101% | IC50 [3]: 28.2 nM | IC50 [4]: 110 nM | IC50 [5]: 18.2 nM | IC50 [6]: 37.2 nM

SMILES: O=C(C1CC1)N1CC[C@@H](CN2C(=O)C3(CCOCC3)N=C2c2ccc(-c3ccc4cccnc4c3)cc2)C1 [compound 661, 3-{[(3R)-1-(Cyclopropylcarbonyl)pyrrolidin-3-yl]methyl}-2-(4-quinolin-7-ylphenyl)-8-oxa-1,3-diazaspiro[4.5]dec-1-en-4-one]
IC50 (A2780 ovarian cells [1]): 42.7 nM | IC50 (A2780 ovarian cells [2]): > 10000 nM | inhibition at 10 µM [3]: 95% | IC50 [3]: 58.9 nM | IC50 [4]: 191 nM | IC50 [5]: ~79.4 nM | IC50 [6]: 132 nM

SMILES: O=C(C1CC1)N1CC(CN2C(=O)C3(CC3)N=C2c2ccc(-c3nc4ccc(Cl)cc4o3)cc2F)C1 [compound 649, 5-[4-(6-Chloro-1,3-benzoxazol-2-yl)-2-fluorophenyl]-6-{[1-(cyclopropylcarbonyl)azetidin-3-yl]methyl}-4,6-diazaspiro[2.4]hept-4-en-7-one]
IC50 (A2780 ovarian cells [1]): 200 nM | IC50 (A2780 ovarian cells [2]): 7410 nM | inhibition at 10 µM [3]: 97% | IC50 [3]: 158 nM | IC50 [4]: 1740 nM | IC50 [5]: 437 nM | IC50 [6]: 372 nM

SMILES: Cn1ncc2cc(-c3ccc(C4=NC5(CC5)C(=O)N4C[C@@H]4CCN(C(=O)C5CC5)C4)cn3)ccc21 [compound 421, 6-{[(3R)-1-(Cyclopropylcarbonyl)pyrrolidin-3-yl]methyl}-5-[6-(1-methyl-1H-indazol-5-yl)pyridin-3-yl]-4,6-diazaspiro[2.4]hept-4-en-7-one]
IC50 (A2780 ovarian cells [1]): 1150 nM | IC50 (A2780 ovarian cells [2]): > 10000 nM | Human FASN pIC50 ([3]; hFASN enzyme full length, scintillation proximity assay, "~" = standard error of pIC50 larger than 0.5): 6.34 | inhibition at 10 µM [3]: 94% | IC50 [4]: 1290 nM | IC50 [5]: 1050 nM | IC50 [6]: 1780 nM

SMILES: COCc1nn(C)c2cc(-c3ccc(C4=NC5(CC5)C(=O)N4C[C@@H]4CCN(C(=O)C5CC5)C4)cc3)ccc12 [compound 484, 6-{[(3R)-1-(Cyclopropylcarbonyl)pyrrolidin-3-yl]methyl}-5-{4-[3-(methoxymethyl)-1-methyl-1H-indazol-6-yl]phenyl}-4,6-diazaspiro[2.4]hept-4-en-7-one]
IC50 (A2780 ovarian cells [1]): 95.5 nM | IC50 (A2780 ovarian cells [2]): > 10000 nM | inhibition at 10 µM [3]: 99% | IC50 [3]: 151 nM | IC50 [4]: 550 nM | IC50 [5]: 151 nM | IC50 [6]: 257 nM

SMILES: Cc1cc(-c2cccc3nn(C)cc23)ccc1C1=NC2(CC2)C(=O)N1CC1CN(C(=O)C2(C)CC2)C1 [compound 598, 6-({1-[(1-Methylcyclopropyl)carbonyl]azetidin-3-yl}methyl)-5-[2-methyl-4-(2-methyl-2H-indazol-4-yl)phenyl]-4,6-diazaspiro[2.4]hept-4-en-7-one]
IC50 (A2780 ovarian cells [1]): 200 nM | IC50 (A2780 ovarian cells [2]): > 10000 nM | inhibition at 10 µM [3]: 103% | IC50 [3]: 209 nM | IC50 [4]: 2340 nM | IC50 [5]: ~355 nM | IC50 [6]: 309 nM

SMILES: O=C(C1CC1)N1CC(CN2C(=O)C3(CC3)N=C2c2ccc(-c3ccc(-n4ccnc4)nc3)cc2F)C1 [compound 526, 6-{[1-(Cyclopropylcarbonyl)azetidin-3-yl]methyl}-5-{2-fluoro-4-[6-(1H-imidazol-1-yl)pyridin-3-yl]phenyl}-4,6-diazaspiro[2.4]hept-4-en-7-one]
IC50 (A2780 ovarian cells [1]): ~1020 nM | IC50 (A2780 ovarian cells [2]): > 10000 nM | inhibition at 10 µM [3]: 93% | IC50 [3]: 912 nM | IC50 [4]: 5890 nM | IC50 [5]: 1480 nM | IC50 [6]: 2190 nM

More lines, now with the values ahead:

IC50 (A2780 ovarian cells [1]): ~83.2 nM | IC50 (A2780 ovarian cells [2]): > 10000 nM | inhibition at 10 µM [3]: 96% | IC50 [3]: 102 nM | IC50 [4]: 724 nM | IC50 [5]: ~83.2 nM | IC50 [6]: 155 nM
SMILES: O=C(C1CC1)N1CC[C@@H](CN2C(=O)C3(CC3)N=C2c2ccc(-c3n[nH]c4ccccc34)cc2F)C1 [compound 529, 6-{[(3R)-1-(Cyclopropylcarbonyl)pyrrolidin-3-yl]methyl}-5-[2-fluoro-4-(1H-indazol-3-yl)phenyl]-4,6-diazaspiro[2.4]hept-4-en-7-one]

IC50 (A2780 ovarian cells [1]): 263 nM | IC50 (A2780 ovarian cells [2]): > 10000 nM | inhibition at 10 µM [3]: 99% | IC50 [3]: 174 nM | IC50 [4]: 1320 nM | IC50 [5]: 617 nM | IC50 [6]: 427 nM
SMILES: O=C(C1CC1)N1CC(CN2C(=O)C3(CC3)N=C2c2ccc(-c3ccc(Cl)cc3F)cc2F)C1 [compound 537, 5-(4′-Chloro-2′,3-difluorobiphenyl-4-yl)-6-{[1-(cyclopropylcarbonyl)azetidin-3-yl]methyl}-4,6-diazaspiro[2.4]hept-4-en-7-one]

IC50 (A2780 ovarian cells [1]): ~5.01 nM | IC50 (A2780 ovarian cells [2]): > 10000 nM | inhibition at 10 µM [3]: 101% | IC50 [3]: 17 nM | IC50 [4]: 15.5 nM | IC50 [5]: 4.79 nM | IC50 [6]: 38 nM
SMILES: O=C(C1CC1)N1CC[C@@H](CN2C(=O)C3(CC3)N=C2c2ccc(-c3ccc4[nH]ccc4c3)cc2F)C1 [compound 246, (R)-6-((1-(cyclopropanecarbonyl)pyrrolidin-3-yl)methyl)-5-(2-fluoro-4-(1H-indol-5-yl)phenyl)-4,6-diazaspiro[2.4]hept-4-en-7-one]

IC50 (A2780 ovarian cells [1]): 229 nM | IC50 (A2780 ovarian cells [2]): > 10000 nM | inhibition at 10 µM [3]: 105% | IC50 [3]: 30.9 nM | IC50 [4]: 617 nM | IC50 [5]: 120 nM | IC50 [6]: 36.3 nM
SMILES: O=C(C1CC1)N1CC[C@@H](CN2C(=O)C3(CCCC3)N=C2c2ccc(-c3ccc4sccc4c3)cc2F)C1 [compound 876]

IC50 (A2780 ovarian cells [1]): 1260 nM | IC50 (A2780 ovarian cells [2]): > 6170 nM | inhibition at 10 µM [3]: 91% | IC50 [3]: 457 nM | IC50 [4]: > 3020 nM | IC50 [5]: 2190 nM | IC50 [6]: 1450 nM
SMILES: O=C1Cc2cc(-c3ccc(C4=NC5(CC5)C(=O)N4C[C@@H]4CCN(C(=O)C5CC5)C4)cc3)ccc2N1 [compound 457, 5-[4-(6-{[(3R)-1-(Cyclopropylcarbonyl)pyrrolidin-3-yl]methyl}-7-oxo-4,6-diazaspiro[2.4]hept-4-en-5-yl)phenyl]-1,3-dihydro-2H-indol-2-one]

IC50 (A2780 ovarian cells [1]): 200 nM | IC50 (A2780 ovarian cells [2]): > 6170 nM | inhibition at 10 µM [3]: 101% | IC50 [3]: 12.3 nM | IC50 [4]: 537 nM | IC50 [5]: ~166 nM | IC50 [6]: 26.3 nM
SMILES: O=C(C1CC1)N1CC[C@@H](CN2C(=O)C3(CC3)N=C2c2ccc(-c3ccc4occc4c3)cc2F)C1 [compound 240, (R)-5-(4-(benzofuran-5-yl)-2-fluorophenyl)-6-((1-(cyclopropanecarbonyl)pyrrolidin-3-yl)methyl)-4,6-diazaspiro[2.4]hept-4-en-7-one]

IC50 (A2780 ovarian cells [1]): 35.5 nM | IC50 (A2780 ovarian cells [2]): > 10000 nM | inhibition at 10 µM [3]: 100% | IC50 [3]: 79.4 nM | IC50 [4]: 631 nM | IC50 [5]: ~74.1 nM | IC50 [6]: 120 nM
SMILES: O=C(C1CC1)N1CC[C@@H](CN2C(=O)C3(CC3)N=C2c2ccc(-c3cccc4[nH]ncc34)c(F)c2)C1 [compound 237, (R)-6-((1-(cyclopropanecarbonyl)pyrrolidin-3-yl)methyl)-5-(3-fluoro-4-(1H-indazol-4-yl)phenyl)-4,6-diazaspiro[2.4]hept-4-en-7-one]

IC50 (A2780 ovarian cells [1]): ~2240 nM | IC50 (A2780 ovarian cells [2]): > 10000 nM | inhibition at 10 µM [3]: 98% | IC50 [3]: 309 nM | IC50 [4]: > 10000 nM | IC50 [5]: ~2630 nM | IC50 [6]: 490 nM
SMILES: O=C(C1CC1)N1CC[C@@H](CN2C(=O)C3(CCCC3)N=C2c2ccc(-c3ccc4[nH]c(=O)[nH]c4c3)cc2F)C1 [compound 885, (R)-5-(4-(3-((1-(cyclopropanecarbonyl)pyrrolidin-3-yl)methuyl)-4-oxo-1,3-diazaspiro[4.4]non-1-en-2-yl)-3-fluorophenyl)-1H-benzo[d]imidazol-2(3H)-one]
